Measured values taken from ChEMBL document CHEMBL3758163, “Extended structure-activity study of thienopyrimidine-based EGFR inhibitors with evaluation of drug-like properties” (Eur J Med Chem, 2016).
Values after ≈ are worked out from the molar mass of the structure shown.

Assays:
[1] = target: Serine/threonine-protein kinase PLK1 (Homo sapiens) (UniProt P53350); test: Inhibition of PLK1 (unknown origin) at 500 nM
[2] = target: Platelet-derived growth factor receptor beta (Homo sapiens) (UniProt P09619); test: Inhibition of PDGFRB (unknown origin) at 500 nM
[3] = target: T1, Ephrin type-A receptor 1 (Homo sapiens) (UniProt P21709); test: Inhibition of EPHA1 (unknown origin) at 500 nM
T1 sequence (whole entry): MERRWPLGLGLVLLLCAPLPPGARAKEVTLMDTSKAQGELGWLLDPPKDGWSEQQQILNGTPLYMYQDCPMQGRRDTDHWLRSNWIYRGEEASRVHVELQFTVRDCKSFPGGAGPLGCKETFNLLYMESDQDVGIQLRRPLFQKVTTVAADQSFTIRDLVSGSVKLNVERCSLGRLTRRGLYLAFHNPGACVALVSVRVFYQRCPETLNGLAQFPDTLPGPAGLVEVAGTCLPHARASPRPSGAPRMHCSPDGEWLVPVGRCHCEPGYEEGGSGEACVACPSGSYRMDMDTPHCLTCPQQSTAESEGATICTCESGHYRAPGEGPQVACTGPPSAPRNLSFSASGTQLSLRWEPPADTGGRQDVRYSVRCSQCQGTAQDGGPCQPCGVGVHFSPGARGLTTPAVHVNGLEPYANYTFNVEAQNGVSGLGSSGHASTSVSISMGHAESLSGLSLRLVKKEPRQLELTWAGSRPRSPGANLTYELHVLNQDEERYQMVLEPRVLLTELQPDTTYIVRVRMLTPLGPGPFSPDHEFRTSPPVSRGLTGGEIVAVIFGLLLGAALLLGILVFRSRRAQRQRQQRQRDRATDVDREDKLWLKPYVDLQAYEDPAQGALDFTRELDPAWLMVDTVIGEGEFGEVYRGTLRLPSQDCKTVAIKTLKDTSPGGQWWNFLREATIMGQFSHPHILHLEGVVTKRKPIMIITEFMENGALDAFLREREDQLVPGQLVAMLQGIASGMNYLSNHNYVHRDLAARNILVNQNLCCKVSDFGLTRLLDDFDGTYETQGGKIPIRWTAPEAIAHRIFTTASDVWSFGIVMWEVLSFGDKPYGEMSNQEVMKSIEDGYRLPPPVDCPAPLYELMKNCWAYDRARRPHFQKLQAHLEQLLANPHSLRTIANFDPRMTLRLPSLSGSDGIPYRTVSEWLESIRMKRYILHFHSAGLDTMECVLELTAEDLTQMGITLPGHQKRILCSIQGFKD

[4] = target: MAP kinase-activated protein kinase 2 (Homo sapiens) (UniProt P49137); test: Inhibition of MAPKAPK2 (unknown origin) at 500 nM
[5] = Toxicity in zebrafish embryo assessed as morphological defects for 3.5 days; format: organism-based, Danio rerio
[6] = Toxicity in zebrafish embryo assessed as survival for 3.5 days; format: organism-based, Danio rerio; settings: in vivo
[7] = target: Receptor tyrosine-protein kinase erbB-2 (Homo sapiens) (UniProt P04626); test: Inhibition of ERBB2 (unknown origin) at 500 nM
[8] = target: Tyrosine-protein kinase Lyn (Homo sapiens) (UniProt P07948); test: Inhibition of LYN A (unknown origin) at 500 nM
[9] = target: Tyrosine-protein kinase Fer (Homo sapiens) (UniProt P16591); test: Inhibition of FER (unknown origin) at 500 nM
Danio rerio [10] = species: Danio rerio; test: Toxicity in zebrafish embryo assessed as effect on morphology upto 25 uM; format: organism-based; settings: in vivo
Danio rerio [11] = species: Danio rerio; test: Toxicity in zebrafish embryo assessed as kinked tails at 50 and 100 uM; format: organism-based; settings: in vivo
[12] = target: Tyrosine-protein kinase Fgr (Homo sapiens) (UniProt P09769); test: Inhibition of FGR (unknown origin) at 500 nM
H9 = test: Antiproliferative activity against human H9 cells after 72 hrs by CellTiter-Glo assay; format: functional, cell-based; settings: H9, 72 h
[13] = Antiproliferative activity against human U937 cells after 72 hrs by CellTiter blue assay; format: functional, cell-based; settings: U-937, 72 h
[14] = Antiproliferative activity against human PC9 cells after 96 hrs by Sytox green marker based fluorescence analysis; format: functional, cell-based; settings: PC-9, 96 h
[15] = Antiproliferative activity against human Hs578T cells after 72 hrs by CellTiter-Glo assay; format: functional, cell-based; settings: Hs-578T
[16] = Antiproliferative activity against human SKBR3 cells after 72 hrs by CellTiter blue assay; format: functional, cell-based; settings: SK-BR-3, 72 h
MRC5 = test: Antiproliferative activity against human MRC5 cells after 72 hrs by CellTiter-Glo assay; format: cell-based; settings: MRC5, 72 h
[17] = Antiproliferative activity against human Calu3 cells after 72 hrs by CellTiter blue assay; format: functional, cell-based; settings: Calu-3, 72 h
FaDu = test: Antiproliferative activity against human FADU cells; format: functional, cell-based
[18] = Antiproliferative activity against human BT474 cells after 72 hrs by CellTiter blue assay; format: functional, cell-based; settings: BT-474, 72 h
SW480 = test: Antiproliferative activity against human SW480 cells after 72 hrs by CellTiter-Glo assay; format: functional, cell-based; settings: SW480, 72 h
[19] = Antiproliferative activity against human OVCAR3 cells after 72 hrs by CellTiter-Glo assay; format: functional, cell-based; settings: OVCAR-3, 72 h
in vitro = settings: human, Caco-2
Description: Efflux ratio of permeability from basolateral to apical side over apical to basolateral side in human Caco2 cells at 10 uM by LC-MS/MS analysis

[20] = Aqueous solubility of compound in 0.01 M PBS buffer at pH 7.4 after 2 hrs by turbidimetric assay; format: physicochemical

Sequence of Tyrosine-protein kinase Fgr (Homo sapiens) (P09769 2-529 limits assumed): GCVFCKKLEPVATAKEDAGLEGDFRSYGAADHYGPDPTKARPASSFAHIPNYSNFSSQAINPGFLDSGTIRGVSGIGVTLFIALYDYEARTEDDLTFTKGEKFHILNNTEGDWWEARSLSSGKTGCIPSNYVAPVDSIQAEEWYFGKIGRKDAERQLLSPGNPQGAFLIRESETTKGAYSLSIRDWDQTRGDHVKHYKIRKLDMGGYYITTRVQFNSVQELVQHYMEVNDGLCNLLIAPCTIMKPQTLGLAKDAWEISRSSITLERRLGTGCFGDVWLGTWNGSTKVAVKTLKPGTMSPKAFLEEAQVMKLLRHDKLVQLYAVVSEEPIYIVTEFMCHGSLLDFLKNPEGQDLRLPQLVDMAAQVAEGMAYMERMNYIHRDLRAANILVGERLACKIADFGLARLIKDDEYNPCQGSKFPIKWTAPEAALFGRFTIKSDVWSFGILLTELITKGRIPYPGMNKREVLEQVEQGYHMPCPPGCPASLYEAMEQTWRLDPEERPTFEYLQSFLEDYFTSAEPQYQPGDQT
Sequence of Platelet-derived growth factor receptor beta (Homo sapiens) (P09619 whole entry): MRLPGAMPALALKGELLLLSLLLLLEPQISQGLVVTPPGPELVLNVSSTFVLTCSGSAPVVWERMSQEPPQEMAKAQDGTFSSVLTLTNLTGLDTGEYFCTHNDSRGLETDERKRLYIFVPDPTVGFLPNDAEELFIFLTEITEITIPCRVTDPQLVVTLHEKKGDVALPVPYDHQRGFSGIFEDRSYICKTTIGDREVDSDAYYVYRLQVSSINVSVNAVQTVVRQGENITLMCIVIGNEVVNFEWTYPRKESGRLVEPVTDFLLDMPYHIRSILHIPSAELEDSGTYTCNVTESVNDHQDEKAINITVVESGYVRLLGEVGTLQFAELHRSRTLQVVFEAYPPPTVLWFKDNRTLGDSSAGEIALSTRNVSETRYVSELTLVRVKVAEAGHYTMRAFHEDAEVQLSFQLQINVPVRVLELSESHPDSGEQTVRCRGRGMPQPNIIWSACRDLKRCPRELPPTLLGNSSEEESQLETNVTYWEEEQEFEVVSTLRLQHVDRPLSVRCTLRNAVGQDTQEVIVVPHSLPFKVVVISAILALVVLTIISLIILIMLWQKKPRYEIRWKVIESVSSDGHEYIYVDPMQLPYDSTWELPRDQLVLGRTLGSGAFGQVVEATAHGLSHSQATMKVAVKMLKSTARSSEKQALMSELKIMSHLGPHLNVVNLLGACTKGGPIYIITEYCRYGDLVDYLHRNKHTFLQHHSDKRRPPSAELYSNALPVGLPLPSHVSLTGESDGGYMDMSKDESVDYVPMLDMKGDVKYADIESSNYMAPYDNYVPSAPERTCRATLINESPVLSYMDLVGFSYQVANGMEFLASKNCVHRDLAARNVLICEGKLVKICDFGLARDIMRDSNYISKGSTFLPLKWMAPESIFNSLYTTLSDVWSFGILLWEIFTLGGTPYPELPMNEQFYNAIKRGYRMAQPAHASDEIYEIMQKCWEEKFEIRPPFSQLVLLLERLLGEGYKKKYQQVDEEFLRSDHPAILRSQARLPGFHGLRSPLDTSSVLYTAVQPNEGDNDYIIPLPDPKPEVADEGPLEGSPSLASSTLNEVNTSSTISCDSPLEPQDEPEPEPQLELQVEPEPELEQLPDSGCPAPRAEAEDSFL
Sequence of Tyrosine-protein kinase Fer (Homo sapiens) (P16591 whole entry, looked up): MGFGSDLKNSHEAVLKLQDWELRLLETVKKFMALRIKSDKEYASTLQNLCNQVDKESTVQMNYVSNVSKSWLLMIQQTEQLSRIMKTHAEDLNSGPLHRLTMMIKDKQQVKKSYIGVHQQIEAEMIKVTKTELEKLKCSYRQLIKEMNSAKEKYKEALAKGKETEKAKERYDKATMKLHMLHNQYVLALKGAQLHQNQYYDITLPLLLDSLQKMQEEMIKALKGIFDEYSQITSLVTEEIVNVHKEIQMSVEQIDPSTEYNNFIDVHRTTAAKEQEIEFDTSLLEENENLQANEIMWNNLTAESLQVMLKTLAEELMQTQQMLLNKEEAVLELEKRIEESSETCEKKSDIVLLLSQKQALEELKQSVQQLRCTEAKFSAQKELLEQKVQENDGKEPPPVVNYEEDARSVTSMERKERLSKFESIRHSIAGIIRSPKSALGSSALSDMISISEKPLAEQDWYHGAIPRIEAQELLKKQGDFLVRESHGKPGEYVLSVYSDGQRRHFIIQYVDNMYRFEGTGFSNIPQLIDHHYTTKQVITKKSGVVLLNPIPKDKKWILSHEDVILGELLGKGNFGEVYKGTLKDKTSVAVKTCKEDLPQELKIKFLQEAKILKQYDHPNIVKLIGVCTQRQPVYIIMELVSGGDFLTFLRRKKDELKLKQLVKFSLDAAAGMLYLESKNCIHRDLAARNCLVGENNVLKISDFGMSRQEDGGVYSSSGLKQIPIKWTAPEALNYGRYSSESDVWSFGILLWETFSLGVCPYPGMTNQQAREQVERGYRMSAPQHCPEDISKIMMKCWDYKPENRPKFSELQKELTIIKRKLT
Sequence of Tyrosine-protein kinase Lyn (Homo sapiens) (P07948 2-512 limits assumed): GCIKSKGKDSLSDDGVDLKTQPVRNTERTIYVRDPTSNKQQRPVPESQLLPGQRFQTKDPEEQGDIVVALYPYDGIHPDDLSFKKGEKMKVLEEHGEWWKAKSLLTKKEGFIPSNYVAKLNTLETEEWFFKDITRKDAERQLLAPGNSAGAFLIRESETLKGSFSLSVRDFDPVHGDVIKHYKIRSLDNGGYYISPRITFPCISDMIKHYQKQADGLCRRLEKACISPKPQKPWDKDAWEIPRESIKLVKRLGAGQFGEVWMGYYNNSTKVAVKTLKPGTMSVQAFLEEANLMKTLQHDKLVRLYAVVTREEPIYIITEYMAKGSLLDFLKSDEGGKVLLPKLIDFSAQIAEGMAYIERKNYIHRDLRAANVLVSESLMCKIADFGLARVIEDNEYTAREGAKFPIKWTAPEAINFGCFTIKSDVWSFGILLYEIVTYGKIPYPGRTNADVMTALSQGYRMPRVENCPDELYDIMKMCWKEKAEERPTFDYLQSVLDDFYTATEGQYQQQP
Sequence of Serine/threonine-protein kinase PLK1 (Homo sapiens) (P53350 whole entry): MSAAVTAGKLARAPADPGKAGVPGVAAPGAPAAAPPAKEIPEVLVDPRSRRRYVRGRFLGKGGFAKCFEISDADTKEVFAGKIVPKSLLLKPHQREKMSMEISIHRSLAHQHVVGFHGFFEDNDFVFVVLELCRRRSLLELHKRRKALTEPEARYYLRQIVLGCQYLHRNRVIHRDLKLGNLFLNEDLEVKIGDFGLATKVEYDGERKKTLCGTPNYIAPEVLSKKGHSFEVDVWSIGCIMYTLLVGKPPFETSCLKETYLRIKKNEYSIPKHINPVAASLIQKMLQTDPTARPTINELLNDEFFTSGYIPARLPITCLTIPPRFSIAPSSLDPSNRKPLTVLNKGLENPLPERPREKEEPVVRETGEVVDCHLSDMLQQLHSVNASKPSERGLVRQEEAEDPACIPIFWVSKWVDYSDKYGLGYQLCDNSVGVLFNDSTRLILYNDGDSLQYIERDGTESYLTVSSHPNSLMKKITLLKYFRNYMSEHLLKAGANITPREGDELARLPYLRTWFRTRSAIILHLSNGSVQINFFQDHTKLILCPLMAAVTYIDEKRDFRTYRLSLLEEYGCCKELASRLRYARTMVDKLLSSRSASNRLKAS
Sequence of Receptor tyrosine-protein kinase erbB-2 (Homo sapiens) (P04626 whole entry): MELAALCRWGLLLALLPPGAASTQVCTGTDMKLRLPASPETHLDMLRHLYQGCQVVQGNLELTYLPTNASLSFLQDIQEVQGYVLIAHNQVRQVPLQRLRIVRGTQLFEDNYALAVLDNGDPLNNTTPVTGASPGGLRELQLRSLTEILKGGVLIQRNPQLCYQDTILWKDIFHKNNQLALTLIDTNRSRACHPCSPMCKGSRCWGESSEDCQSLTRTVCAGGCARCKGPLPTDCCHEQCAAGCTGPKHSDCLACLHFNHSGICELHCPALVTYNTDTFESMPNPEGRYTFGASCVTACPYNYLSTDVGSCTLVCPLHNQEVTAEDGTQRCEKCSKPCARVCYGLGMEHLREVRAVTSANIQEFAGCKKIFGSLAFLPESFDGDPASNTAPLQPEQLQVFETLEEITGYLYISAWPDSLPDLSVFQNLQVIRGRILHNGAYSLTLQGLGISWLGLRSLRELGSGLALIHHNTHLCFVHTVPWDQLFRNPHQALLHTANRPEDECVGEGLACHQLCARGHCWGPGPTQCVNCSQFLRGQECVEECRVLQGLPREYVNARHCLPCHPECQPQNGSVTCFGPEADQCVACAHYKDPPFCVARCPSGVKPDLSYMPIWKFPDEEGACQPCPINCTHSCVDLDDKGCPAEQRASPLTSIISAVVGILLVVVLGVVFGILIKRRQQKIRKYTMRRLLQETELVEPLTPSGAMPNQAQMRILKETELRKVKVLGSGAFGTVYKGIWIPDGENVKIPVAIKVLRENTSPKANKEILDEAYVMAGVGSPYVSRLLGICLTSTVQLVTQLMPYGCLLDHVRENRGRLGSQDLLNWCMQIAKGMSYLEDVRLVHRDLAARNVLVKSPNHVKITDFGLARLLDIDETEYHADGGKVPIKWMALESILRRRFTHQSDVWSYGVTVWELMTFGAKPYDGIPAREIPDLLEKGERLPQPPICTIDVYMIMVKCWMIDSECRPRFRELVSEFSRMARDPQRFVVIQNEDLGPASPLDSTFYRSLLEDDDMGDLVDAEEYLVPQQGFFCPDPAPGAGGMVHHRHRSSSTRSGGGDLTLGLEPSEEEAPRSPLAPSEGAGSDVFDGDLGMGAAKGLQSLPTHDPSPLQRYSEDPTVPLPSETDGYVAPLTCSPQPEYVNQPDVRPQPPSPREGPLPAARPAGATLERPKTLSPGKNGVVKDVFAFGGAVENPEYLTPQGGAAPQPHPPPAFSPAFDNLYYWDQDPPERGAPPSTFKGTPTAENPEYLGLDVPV

Compound	inhibition [1] [%]	inhibition [2] [%]	inhibition [3] [%]	inhibition [4] [%]	inhibition [7] [%]	inhibition [8] [%]	inhibition [9] [%]	inhibition [12] [%]	solubility kinetic at 2 h [20] [µM]	also measured
COc1cc(C(N)=O)ccc1-c1cc2c(N[C@H](CO)c3ccccc3)ncnc2s1	-8	8	12	-7	37	47	-3	40	–	EC50 at 3.5 days [5]: 46 µM; LC50 at 84 h [6]: > 100 µM; Activity (Danio rerio [10]): Non-toxic; Activity (Danio rerio [11]): Toxic
COc1cc(CO)ccc1-c1cc2c(N[C@H](CO)c3ccccc3)ncnc2s1	1	1	1	8	50	40	8	58	–	IC50 (H9): 12 µM; IC50 [13]: 18 µM; EC50 at 3.5 days [5]: 49 µM; LC50 at 84 h [6]: > 100 µM; IC50 [14]: 0.09 µM; IC50 [15]: 43 µM; IC50 [16]: 17 µM; IC50 (MRC5): 37 µM; IC50 [17]: 4.2 µM; IC50 (FaDu): 43 µM; Activity (Danio rerio [10]): Non-toxic; IC50 [18]: 11 µM; Activity (Danio rerio [11]): Toxic; IC50 (SW480): 19 µM; IC50 [19]: 9.7 µM
C#Cc1cccc(Nc2ncnc3sc(-c4ccc(CO)cc4OC)cc23)c1	-8	13	2	–	19	13	-2	11	–	–
CN(C)CCNC(=O)c1ccc(-c2cc3c(N[C@H](CO)c4ccccc4)ncnc3s2)cc1	6	-5	15	2	54	31	-4	33	65 (≈ 30 µg/mL)	efflux ratio at 10 µM (in vitro): > 20
COc1ccc(C(=O)NCCN(C)C)cc1-c1cc2c(N[C@H](C)c3ccccc3)ncnc2s1	2	0	7	-1	63	57	5	71	> 100	efflux ratio at 10 µM (in vitro): 63
C#Cc1cccc(Nc2ncnc3cc(OCCOC)c(OCCOC)cc23)c1 [ERLOTINIB]	-9	-5	3	-1	–	68	-1	42	20 (≈ 7.87 µg/mL)	IC50 (H9): 1.3 µM; IC50 [13]: 9.9 µM; EC50 at 3.5 days [5]: 60 µM; IC50 [14]: 0.07 µM; IC50 [15]: > 100 µM; IC50 [16]: > 100 µM; IC50 (MRC5): 5.8 µM; IC50 [17]: 4.7 µM; IC50 (FaDu): 18 µM; Activity (Danio rerio [10]): Non-toxic; IC50 [18]: 13 µM; Activity (Danio rerio [11]): Toxic; IC50 (SW480): > 100 µM; IC50 [19]: 4.6 µM
C[C@@H](Nc1ncnc2sc(-c3ccc(C(=O)NCCN(C)C)cc3)cc12)c1ccccc1	1	6	11	–	40	38	-4	18	–	–
COc1cc(CO)ccc1-c1cc2c(N[C@H](C)c3ccccc3)ncnc2s1	1	3	1	1	57	61	10	40	–	–
C[C@@H](Nc1ncnc2sc(-c3ccccc3C(N)=O)cc12)c1ccccc1	-3	6	11	-8	-3	16	-4	2	–	–
COc1cc(CO)ccc1-c1cc2c(Nc3ccc(F)c(Cl)c3)ncnc2s1	6	-3	12	3	48	13	-1	11	2 (≈ 0.832 µg/mL)	–
COc1cc(CO)ccc1-c1cc2c(Nc3ccccc3)ncnc2s1	2	-3	13	4	32	24	0	25	–	–
